Experimental data: publication PMC8774489, “[(WR)8WKβA]-Doxorubicin Conjugate: A Delivery System to Overcome Multi-Drug Resistance against Doxorubicin” (Cells, 2022)
Like-named read-outs stand apart in the source and are kept apart here. Peptide text beside a SMILES is read from it.

Key:
[1] = tested on: K562/ADR (human erythroleukemic cells); parameters: method as in PMID 11261883; settings: resistant K562/ADR cells; cited from earlier work
From the text: Different linear CPPs such as penetratin [15], TAT [18], polyarginine, and maurocalcine have been conjugated with Dox.

[2] = tested on: MES-SA/MX2 cells; experiment: In vitro cytotoxicity (MTS) assay in Dox-resistant MES-SA/MX2 cells; type: cell-based
Description: (§1) The incubation was continued for 3 h.

[3] = tested on: MDA-MB-231 cells; type: cell-based, human; settings: MTS; for MDA-MB-231 cell viability: 5 µM, mean n = 3
Description: as §1

[4] = tested on: SK-OV-3 cells; type: cell-based, human; settings: 5 µM, 72 h, MTS, mean n = 3
Description: as §1

[5] = tested on: MCF-7 cells; experiment: In vitro cytotoxicity (MTS) assay in MCF-7 cells; type: cell-based, human; settings: for reduction of MCF-7 cell proliferation: mean n = 3
Description: as §1

[6] = tested on: H9C2 cells; experiment: Confocal microscopy uptake in H9C2 heart cells; type: cell-based, rat; settings: H9C2, 5 µM (mixture: Dox 5 µM with [WR]9 5 or 10 µM), 24 h
Description: (§2) MDA-MB-231, SK-OV-3, MES-SA/MX2, and H9C2 cells (7 × 10^4 cells/well) were seeded with a medium on a coverslip 24 h prior to the experiment in six well plates. After 24 h, the medium was changed with opti-MEM. The cells were treated with Dox and peptide-Dox conjugate (5 μM) in opti-MEM for 24 h. After 24 h incubation, the media were removed, and cells were washed three times with PBS in each well. Then, the cells were fixed with 3.7% formaldehyde for 10 min, followed by washing three times with PBS for 5 min (pH 7.6). DAPI (40 µL) for staining the nuclei was placed on a microscope slide, and it was covered with the coverslip with the cell-attached side facing down. The slides were left standing horizontally in a dark place with airflow to allow drying faster. The cells were photographed using Nikon Instruments A1 Confocal Laser Microscope Series (Nikon Instruments Inc, NY, USA) and NIS-Elements software (AR 4.30.02, 64 bit). The scan mode was selected as Galvano. The magnification and resolution were set at 40× and 1024, respectively.

[7] = in vitro; settings: human, 25% human serum
Description: Human serum (250 μL) was diluted by adding sterile water (650 μL) and conjugate stock solution (100 μL) to give a sample with 25% human serum and 5 μM conjugate. The sample was kept at 37 °C in an incubator to mimic human body temperature. At regular time intervals, aliquots (100 μL) were taken and diluted with methanol (200 μL). After centrifugation (7000 RPM) of the mixture for 10 min, the supernatant was analyzed by analytical HPLC at 495 nm, and the major HPLC peaks were analyzed by mass spectrometry. The mobile phase used was acetonitrile/water with 0.1% TFA, with a gradient of 20–45% and a flow rate of 1 mL/min in 50 min. The percentage of intact conjugate and the release of the free drug were plotted against incubation time. The AUC obtained after each run was used to confirm the conjugate’s degradation, and t1/2 (the time needed to hydrolyze half of the initial conjugate in human serum) was calculated from the graph plotted as AUC versus incubation time.

[8] = tested on: MES-SA/MX2 cells; experiment: Confocal microscopy internalization in MES-SA/MX2 cells; type: cell-based; settings: MES-SA/MX2, 5 μM, 24 h
Description: as §2

[9] = tested on: MES-SA/MX2 cells; experiment: FACS cellular uptake with endocytosis inhibitors in MES-SA/MX2 cells; type: cell-based; settings: MES-SA/MX2, conjugate 5 µM, 3 h, flow cytometry, n = 3
[10] = tested on: MDA-MB-231 cells; experiment: FACS cellular uptake with endocytosis inhibitors in MDA-MB-231 cells; type: cell-based, human; settings: MDA-MB-231, conjugate 5 µM, 3 h, flow cytometry, n = 3
Description: A flow cytometry study was conducted in the presence of endocytosis inhibitors such as nystatin, chlorpromazine, chloroquine, and methyl β-cyclodextrin to determine whether the cellular uptake for the peptide-Dox was endocytosis-dependent. MDA-MB-231 (5 × 10^5 cells/well) were seeded in the medium 24 h prior to the experiment in six well plates, and after 24 h the medium was changed with opti-MEM. […] The cells were then incubated with [(WR)8WKβA]-Dox conjugate (5 µM) in the presence of inhibitors for 3 h. After 3 h incubation, the media containing the compounds were removed. Next, the cells were digested with 0.05% trypsin/EDTA (0.53 mM) for 5 min to remove any artificial surface binding, centrifuged at 2500 RPM for 5 min with Fisher Scientific accuSpin Micro 17, and then collected as the precipitant. Then the cells were washed two times with PBS, resuspended in flow cytometry buffer, and transferred to the flow cytometry tubes through the 35 µm Strainer Mesh cap. Finally, the cells were analyzed by flow cytometry (FACSCalibur: Becton Dickinson, San Jose, CA, USA) using the Propidium Iodide channel and CellQuest software. The data presented were based on the mean fluorescence intensity for 10,000 cells collected. All assays were performed in triplicate.

[11] = tested on: CCRF-CEM cells; settings: conjugate 5 μM for 4 h at 37 °C, then drug-free medium, HPLC AUC
Description: Intracellular hydrolysis of [(WR)8WKβA]-Dox and accumulation of free Dox and the peptide–Dox conjugate were determined in CCRF-CEM cells by HPLC analysis. Cells were grown with serum-free RPMI medium in 75 cm^2 culture flasks to ∼70–80% confluence (1.37 × 10^7 cells/mL). The medium was first replaced with fresh RPMI medium having [(WR)8WKβA]-Dox conjugate (5 μM). Then the cells were incubated for 4 h at 37 °C. After 4 h, the medium containing the conjugate was aspirated, and cells were washed three times with PBS before adding a fresh serum-free medium. The cells were first partitioned/transferred to culture plates (six wells) contained 1.37 × 10^7 cells per well in 5 mL of medium, then incubated for the indicated time. After incubation, the cells were collected using centrifugation. After centrifugation, the medium was removed by decantation. The cell pellets were washed with ice-cold PBS to remove any remaining medium. The cell pellets were then completely extracted with an equal volume of methanol, chloroform, and isopropanol mixture (4:3:1 v/v/v) and finally filtered through 0.2 μm filters. The relative amount of Dox and [(WR)8WKβA]-Dox concentrations in cell lysates were quantified by analytical HPLC using the water/acetonitrile solvent.

[12] = tested on: H9C2 myocardium cells; settings: 24 h, MTS, n = 3
Description: The cells were seeded in a complete growth medium 24 h prior to the experiment. […] The incubation was continued for 3 h.

[13] = tested on: MDA-MB-231 cells; experiment: Differential nuclear and cytoplasmic extraction of Dox, HPLC; type: cell-based, human; settings: 50 μM, 4 h exposure, MDA-MB-231, nuclear extract, HPLC at 490 nm
Description: In order to confirm nuclear delivery of peptide-conjugated Dox, in addition to confocal microscopy, we performed a differential nuclear and cytoplasmic extraction. […] The cells were then pelleted at 2000 rpm for 5 min. After removing the supernatant, the cells were resuspended in Dounce buffer containing protease inhibitors. The cell suspension to be used was incubated on ice for 15 min before being spiked with cold 10% NP-40 and vortexed for 10 s. The suspension was centrifuged at 10,000 rpm for 10 min at 4 °C to pellet the nuclei. The supernatant was isolated for cytoplasmic extraction. The nuclear pellet was washed in cold PBS twice and centrifuged to remove the supernatant. The isolated nuclei were then lysed using RIPA buffer containing protease inhibitors. The nuclear and cytoplasmic extractions were analyzed by analytical HPLC to differentially quantify free Dox (or Dox released from the conjugates) and peptide-conjugate Dox using an Agilent Zorbax SB-C18 (4.6 × 150 mm) column. The column was equilibrated with 0.1% TFA-water (solvent A). The elution was performed at a flow rate of 1 mL/min using a gradient of acetonitrile from 0 to 35% in 50 min, with the absorbance measured at 490 nm.

[14] = tested on: SK-OV-3 cells; experiment: Confocal microscopy uptake and retention in SK-OV-3 cells; type: cell-based, human; settings: SK-OV-3, 5 μM, 3 h then 24 h in media
Description: as §2, with “The cells were treated with Dox and peptide-Dox conjugate (5 μM) in opti-MEM for 24 h.” left out

[15] = molecular transporter of fluorescence-labeled phosphopeptide; cited from earlier work
From the text: Recently, we have reported amphiphilic cyclic CPPs composed of increasing numbers of W and R residues [WR]6–9, and compared their efficiency with the previously published cyclic [WR]5 in improving the cellular uptake of cell-impermeable compounds and their molecular transporter efficiency.

[16] = chlorpromazine 30 μM, methyl-β-cyclodextrin 2.5 mM

In the case of COc1cccc2c1C(=O)c1c(O)c3c(c(O)c1C2=O)C[C@@](O)(C(=O)CO)C[C@@H]3O[C@H]1C[C@H](N)[C@H](O)[C@H](C)O1 [Dox, Doxorubicin], the IC50 [1] is given as 65 ± 7 µM, the “inhibition of MES-SA/MX2 cell viability / proliferation” value ([2]; 5 μM, 72 h) is given as 15% and the “efficiency of free Dox against MES-SA/MX2” value ([2]; 1, 5, 10 or 20 µM) is given as “did not show significant efficiency”. The MDA-MB-231 cell viability ([3]; 24 h) was 79%, the “inhibition of MDA-MB-231 cell viability / proliferation” value ([3]; 5 μM, 72 h) was 63% and the MDA-MB-231 cell viability ([3]; 72 h) was 37%. For the same compound, the “reduction of SK-OV-3 cell viability” value [4] was 35%, the “reduction of MCF-7 cell proliferation” value ([5]; 5 µM, 24 h) was 21% and the “reduction of MCF-7 cell proliferation” value ([5]; 5 µM, 72 h) was 57%. The “uptake in heart cells by confocal microscopy” value [6] was “high uptake”.

With COc1cccc2c1C(=O)c1c(O)c3c(c(O)c1C2=O)C[C@@](O)(C(=O)COC(=O)CCCC(=O)NCCC(=O)NCCCC[C@@H]1NC(=O)[C@H](Cc2c[nH]c4ccccc24)NC(=O)[C@H](CCCNC(=N)N)NC(=O)[C@H](Cc2c[nH]c4ccccc24)NC(=O)[C@H](CCCNC(=N)N)NC(=O)[C@H](Cc2c[nH]c4ccccc24)NC(=O)[C@H](CCCNC(=N)N)NC(=O)[C@H](Cc2c[nH]c4ccccc24)NC(=O)[C@H](CCCNC(=N)N)NC(=O)[C@H](Cc2c[nH]c4ccccc24)NC(=O)[C@H](CCCNC(=N)N)NC(=O)[C@H](Cc2c[nH]c4ccccc24)NC(=O)[C@H](CCCNC(=N)N)NC(=O)[C@H](Cc2c[nH]c4ccccc24)NC(=O)[C@H](CCCNC(=N)N)NC(=O)[C@H](Cc2c[nH]c4ccccc24)NC(=O)[C@H](CCCNC(=N)N)NC(=O)[C@H](Cc2c[nH]c4ccccc24)NC1=O)C[C@@H]3O[C@H]1C[C@H](N)[C@H](O)[C@H](C)O1 [[(WR)8WKβA]-Dox conjugate] (HELM PEPTIDE1{K.W.R.W.R.W.R.W.R.W.R.W.R.W.R.W.R.W}|PEPTIDE2{[COc1cccc2c1C(=O)c1c(O)c3c(c(O)c1C2=O)C[C@@](O)(C(=O)COC(=O)CCCC(=O)[*:2])C[C@@H]3O[C@H]1C[C@H](N)[C@H](O)[C@H](C)O1].[bAla]}$PEPTIDE1,PEPTIDE2,1:R3-2:R2|PEPTIDE1,PEPTIDE1,1:R1-18:R2$$$V2.0) the metabolised at 1 h, 5 µM [7] was 7%, the metabolised at 6 h, 5 µM [7] was roughly 50% and the metabolised at 12 h, 5 µM [7] was greater than 80%. The remaining at 24 h, 5 µM [7] was 6%, the “internalization into resistant cells overexpressing P-gp” value [8] was “internalized” and the “uptake reduction in presence of chlorpromazine and methyl-β-cyclodextrin” value [9, 16] was “statistically significant”. For the same compound, the “cellular uptake in presence of nystatin and chloroquine” value ([9]; nystatin 50 μg/mL, chloroquine 100 μM) was “not reduced significantly”, the “cellular uptake in presence of chlorpromazine and methyl-β-cyclodextrin” value [10, 16] was “slight uptake reduction” and the “cellular uptake in presence of nystatin and chloroquine” value ([10]; nystatin 50 μg/mL, chloroquine 100 μM, 30 min preincubation) was “not reduced significantly”. For the same compound, the “free Dox released intracellularly” value ([11]; within 12 h) was “More than 36%”, the “free Dox released intracellularly” value ([11]; within 72 h) was “approximately 100%” and the “cytotoxicity in rat H9C2 myocardium cells” value ([12]; 10 µM) was “comparable to Dox”. For the same compound, the “cytotoxicity in rat H9C2 myocardium cells” value ([12]; 1 and 5 µM) was “no significant cytotoxicity”, the “reduction of MCF-7 cell proliferation” value ([5]; 1 µM, 24 h) was 28% and the “reduction of MCF-7 cell proliferation” value ([5]; 1 µM, 72 h) was 70%. For the same compound, the “reduction of MCF-7 cell proliferation” value ([5]; 5 µM, 24 h) was 55%, the “reduction of MCF-7 cell proliferation” value ([5]; 10 µM, 24 h) was 56% and the “reduction of MCF-7 cell proliferation” value ([5]; 10 µM, 72 h) was 77%. The “total concentration of Dox (conjugated and released) in the nucleus” value [13] was “higher than free Dox”, the “cellular uptake, retention and localization of Dox” value [14] was “increased the cellular uptake and retention of Dox” and the “uptake in heart cells by confocal microscopy” value [6] was “did not show any significant uptake”.

For N=C(N)NCCC[C@@H]1NC(=O)[C@H](Cc2c[nH]c3ccccc23)NC(=O)[C@H](CCCNC(=N)N)NC(=O)[C@H](Cc2c[nH]c3ccccc23)NC(=O)[C@H](CCCNC(=N)N)NC(=O)[C@H](Cc2c[nH]c3ccccc23)NC(=O)[C@H](CCCNC(=N)N)NC(=O)[C@H](Cc2c[nH]c3ccccc23)NC(=O)[C@H](CCCNC(=N)N)NC(=O)[C@H](Cc2c[nH]c3ccccc23)NC(=O)[C@H](CCCNC(=N)N)NC(=O)[C@H](Cc2c[nH]c3ccccc23)NC(=O)[C@H](CCCNC(=N)N)NC(=O)[C@H](Cc2c[nH]c3ccccc23)NC(=O)[C@H](CCCNC(=N)N)NC(=O)[C@H](Cc2c[nH]c3ccccc23)NC(=O)[C@H](CCCNC(=N)N)NC(=O)[C@H](Cc2c[nH]c3ccccc23)NC1=O [[WR]9] (HELM PEPTIDE1{R.W.R.W.R.W.R.W.R.W.R.W.R.W.R.W.R.W}$PEPTIDE1,PEPTIDE1,1:R1-18:R2$$$V2.0), the “antiproliferative effect of [WR]9 alone on MES-SA/MX2” value ([2]; 24 and 72 h) is given as “no significant antiproliferative effect”, the “enhancement of cellular uptake of F′-GpYEEI” value [15] is given as 20 fold and the “effect of [WR]9 alone on MCF-7 cell survival” value ([5]; different concentrations (1, 5, 10 μM)) is given as “no significant effect on cell survival”.
